Reference: patent US20240335406A1, “COMPOUNDED COMPOSITIONS AND METHODS FOR TREATING PAIN” (CMPD Licensing, LLC, priority 2016, published 2024)
Counter-ions that a name gives are not always drawn.

Experiment: Potency test of the compounded topical solution of Example 1 (HPLC with UV/photodiode array detector)
Type: physicochemical
Conditions: for Measured: concentration of analyte in compounded topical solution of Example 1; for Potency: measured vs reported concentration, compounded topical solution of Example 1
Experimental: Diclofenac sodium topical solution, 1.5% (w/w), includes approximately 16.05 mg diclofenac sodium per mL. Accordingly, approximately 0.9167 mL of diclofenac sodium topical solution, 1.5% (w/w), was measured for every mL of compounded topical solution. […] The measured ingredients where combined in a beaker. The beaker was placed on a magnetic stirring plate and a stir bar was placed in the beaker and rotated at a speed to create a small vortex for 5 minutes. The stirred solution was then placed in containers.

Row | Structure (SMILES) | Measured | Potency
1 | O=C(O)Cc1ccccc1Nc1c(Cl)cccc1Cl [Diclofenac Sodium] | 1.51% | 103%
2 | CCN(CC)CC(=O)Nc1c(C)cccc1C [Lidocaine HCl, Lidocaine Hydrochloride] | 0.336% | 101%
